“And” between values parts separate entries of the source, which are not always exact repeats. Equal values may be shown once. Read-outs that look alike come from different tables or passages of the source.
Key:
human JMJD5 [1] = molecular target: T1, human JMJD5 (Homo sapiens, UniProt Q8N371); experiment: SPE-MS JMJD5 inhibition assay; format: biochemical; conditions: for IC50 / IC50 JMJD5: 2OG 2.0 μM, Fe(II) 2.0 μM, LAA 100 μM, RPS6_128–148 2.0 μM
T1 construct: made in house; host or cells: Escherichia coli BL21(DE3)
T1 sequence (Q8N371 whole entry): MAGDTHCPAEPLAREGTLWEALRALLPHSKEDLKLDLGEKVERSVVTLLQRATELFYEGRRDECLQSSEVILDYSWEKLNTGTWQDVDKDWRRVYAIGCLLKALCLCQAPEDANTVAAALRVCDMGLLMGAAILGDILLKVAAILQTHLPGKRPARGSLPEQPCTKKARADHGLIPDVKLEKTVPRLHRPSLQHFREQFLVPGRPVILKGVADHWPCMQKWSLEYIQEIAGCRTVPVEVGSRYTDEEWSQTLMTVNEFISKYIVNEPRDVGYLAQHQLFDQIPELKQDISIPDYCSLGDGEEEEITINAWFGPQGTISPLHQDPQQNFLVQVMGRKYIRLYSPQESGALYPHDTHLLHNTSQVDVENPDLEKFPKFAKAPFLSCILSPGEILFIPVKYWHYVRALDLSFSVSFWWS
Description: Solutions of the small-molecules (100% DMSO) were dry dispensed across 384 well polypropylene V-bottom assay microplates (Greiner) in an approximately three-fold and 11-point dilution series (100 μM inhibitor top concentration; the final DMSO assay concentration was kept constant at 0.5%v/v) using an ECHO 550 acoustic dispenser (Labcyte). […] Each reaction was performed in technical duplicates in adjacent wells of the assay plates; additionally, assays were performed in two independent duplicates on different days using different inhibitor solutions.
The Enzyme Mixture (25 μL per well), containing 0.3 μM His6-thioredoxin-tagged JMJD5 in buffer (50 mM MOPS, pH 7.5), was dispensed across the inhibitor-containing 384-well plates with a multidrop dispenser (ThermoFischer Scientific) at 20 °C under an ambient atmosphere. The plates were subsequently centrifuged (1000 rpm, 5 s) and incubated for 15 min at 20 °C. […] The plates were centrifuged (1000 rpm, 5 s) and, after incubating for 30 min, the enzyme reaction was stopped by the addition of 10%v/v aqueous formic acid (5 μL per well). The plates were then centrifuged (1000 rpm, 30 s) and analyzed by MS.
Z′-Factors were calculated according to the cited literature using Microsoft Excel.[61]

human JMJD5 [2] = molecular target: T1, human JMJD5; experiment: SPE-MS JMJD5 turnover and kinetic assay (RPS6_128–148 hydroxylation); format: biochemical; conditions: for JMJD5 (%): RPS6_128–148 hydroxylation with the compound as cosubstrate: absence of 2OG, JMJD5 0.15 μM, 2OG derivative 400 μM, Fe(II) 20 μM, RPS6_128–148 2.0 μM
Description: JMJD5 turnover assays for time course and kinetic experiments were performed in 96-well polypropylene assay plates (Greiner) with either […] total reaction volume using the concentrations given in the manuscript or ESI, ^† and JMJD5-catalysed substrate hydroxylation was directly monitored using SPE-MS. […] Assay samples were aspirated under vacuum for 0.6 s and loaded onto a C4 solid phase extraction (SPE) cartridge. After loading, the C4 SPE cartridge was washed with 0.1%v/v aqueous formic acid to remove non-volatile buffer salts (5.5 s, 1.5 mL min^−1). The peptide was eluted from the SPE cartridge with 0.1%v/v aqueous formic acid in 80/20v/v acetonitrile/water into the mass spectrometer (5.5 s, 1.5 mL min^−1) and the SPE cartridge re-equilibrated with 0.1%v/v aqueous formic acid (0.5 s, 1.5 mL min^−1). The mass spectrometer was operated using the MassHunter Workstation B.08.00 software (Agilent), the mass spectrometer parameters were: capillary voltage (4000 V), nozzle voltage (1000 V), fragmentor voltage (365 V), gas temperature (280 °C), gas flow (13 L min^−1), sheath gas temperature (350 °C), sheath gas flow (12 L min^−1). […] Data were exported into Microsoft Excel and used to calculate the % conversion of the hydroxylation reaction using the equation: % conversion = 100 × (integral product peptide)/(integral substrate peptide + integral product peptide).
parameters (continues on the following two pages). Maximum velocities (vapp ) and Michaelis constants (Kapp)
of JMJD5 were determined in independent triplicates, monitoring the JMJD5-catalyzed hydroxylation of the
SPE-MS, as described (Experimental Section).
20 °C). Measurement times were normalized to the first sample injection analyzed after the addition of JMJD5 to
shown as the mean of three independent runs (n = 3; mean ± standard deviation, SD).
hexahydrate (20 μM, (NH4)2Fe(SO4)2·6H2O); and (b) hydroxylation rates used to determine kinetic parameters of
(1 picture or pasted object on this page, not shown here)
Maximum velocities (vapp ) and
Michaelis constants (Kapp) of JMJD5 were determined in independent triplicates for (1R)-3-
(carboxycarbonyl)cyclopentane-1-carboxylic acid (14), monitoring the JMJD5-catalyzed hydroxylation of the
as described (Experimental Section).
pH 7.5, 20 °C). Measurement times were normalized to the first sample injection analyzed after the addition of
(§1) Data are shown as the mean of three independent runs (n = 3; mean ± SD).
to determine kinetic parameters of JMJD5 for 14.

human KDM4E [3] = molecular target: T2, human KDM4E (Homo sapiens, UniProt B2RXH2); experiment: KDM4E SPE-MS inhibition assay; format: biochemical; conditions: KDM4E 0.15 μM, peptide 10.0 μM, LAA 100 μM, FAS 10 μM, 2OG 10 μM
T2 sequence (B2RXH2 1-506): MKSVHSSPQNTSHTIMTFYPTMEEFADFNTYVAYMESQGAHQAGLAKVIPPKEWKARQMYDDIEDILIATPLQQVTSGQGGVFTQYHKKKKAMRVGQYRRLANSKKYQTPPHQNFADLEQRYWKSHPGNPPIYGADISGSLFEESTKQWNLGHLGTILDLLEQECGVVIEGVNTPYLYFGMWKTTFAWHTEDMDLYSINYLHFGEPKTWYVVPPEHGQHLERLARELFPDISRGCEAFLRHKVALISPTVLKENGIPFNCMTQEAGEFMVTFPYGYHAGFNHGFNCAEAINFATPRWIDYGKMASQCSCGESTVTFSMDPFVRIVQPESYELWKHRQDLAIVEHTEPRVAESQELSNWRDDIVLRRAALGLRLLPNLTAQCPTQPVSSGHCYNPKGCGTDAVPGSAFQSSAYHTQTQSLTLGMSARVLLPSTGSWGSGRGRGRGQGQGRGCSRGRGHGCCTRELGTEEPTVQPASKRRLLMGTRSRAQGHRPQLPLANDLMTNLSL
Description: KDM4E turnover and inhibition assays were performed as reported using recombinant human KDM4E and a histone 3 K9(me3) derivative (i.e. […](me3)STGGIA)[41] as substrate.[95] […]

human AspH = conditions: absence of 2OG; AspH 0.1 μM, 2OG derivative 330 μM, Fe(II) 50 μM, hFX-CP101–119 2.0 μM; cited from earlier work
human KDM4E [4] = molecular target: T2, human KDM4E; experiment: KDM4E SPE-MS turnover and kinetic assay (H3 K9(me3) peptide demethylation); format: biochemical; conditions: absence of 2OG; KDM4E 0.15 μM, 2OG derivative 330 μM, Fe(II) 50 μM, ARTAQTARK(me3)STGGIA 10.0 μM
Description: KDM4E turnover and inhibition assays were performed as reported using recombinant human KDM4E and a histone 3 K9(me3) derivative (i.e. […](me3)STGGIA)[41] as substrate.[95]
Supplementary Figure S3. Rates of KDM4E-catalyzed Nε-trimethyl lysine demethylations of a histone 3- […]
Maximum velocities (vapp ) and Michaelis […]
catalyzed Nε-trimethyl lysine demethylation of the histone 3 K9(me3)-derived peptide […]
(me3)STGGIA2 by SPE-MS as described;3 note that mono-, di-, and tri-demethylated product […]
buffer (50 mM MES, pH 7.0, 20 °C). Measurement times were normalized to the first sample injection analyzed […]
as §1
(a) Time course of the KDM4E-catalyzed Nε-trimethyl lysine demethylation reaction of the […]

human FIH = conditions: absence of 2OG; FIH 0.15 μM, 2OG derivative 330 μM, Fe(II) 50 μM, HIF-1α788–822 5.0 μM; cited from earlier work
[5] = JMJD5 0.15 μM, read-out: IC50 JMJD5

| Compound | IC50 (human JMJD5 [1]; [5]) | JMJD5 (%): RPS6_128–148 hydroxylation with the compound as cosubstrate (human JMJD5 [2]) | AspH (%): substrate hydroxylation with the compound as cosubstrate (human AspH) | KDM4E (%): substrate demethylation with the compound as cosubstrate (human KDM4E [4]) | FIH (%): substrate hydroxylation with the compound as cosubstrate (human FIH) | other results |
| --- | --- | --- | --- | --- | --- | --- |
| O=C(O)CCNc1cc(N2CCc3ccccc3CC2)nc(-c2ccccn2)n1 [GSK-J1, reference compound] | ~4.4 µM |  |  |  |  |  |
| CN(C)NC(=O)CCC(=O)O [daminozide, reference compound] |  |  |  |  |  | IC50 (human JMJD5 [1]; IC50 JMJD5, JMJD5 0.15 μM): > 100 µM |
| O=C(O)CNC(=O)C(=O)O [NOG, N-oxalylglycine, reference compound] | ~0.2 µM |  |  |  |  |  |
| 3-(4-methoxybenzyl)-2OG [2OG derivative 6] | > 50 µM | ~ 10% | < 1% | ~ 5% | < 1% | IC50 (human KDM4E [3]): > 50 µM |
| CN(C)CCCNC(=O)c1ccc(-c2cc(O)c3ncccc3c2)cc1 [ML324, reference compound] |  |  |  |  |  | Hill coefficient of the JMJD5 inhibition curve (human JMJD5 [1]): ≥ 2 |
| O=C(O)CCNc1cc(N2CCc3ccccc3CC2)nc(-c2ccccn2)n1 [C00036] | 4.4 ± 0.5 µM |  |  |  |  |  |
| O=C(O)CNC(=O)c1c(O)c2ccccc2n(OCC2CC2)c1=O [C00037, reference compound] |  |  |  |  |  | IC50 (human JMJD5 [1]; IC50 JMJD5, JMJD5 0.15 μM): 37.2 ± 6 µM |
| CC1(C)c2ccccc2-c2ccc(CC(CC(=O)O)C(=O)C(=O)O)cc21 (stereo not shown) [Entry 7] |  | < 1% | < 1% | < 1% | < 1% | IC50 (human KDM4E [3]): 6 to 7 µM and ~6.1 µM |
| O=c1c2ccccc2[se]n1-c1ccccc1 [C00031] | 0.69 ± 0.15 µM |  |  |  |  |  |
| 3-(9,9-dimethyl-9H-fluoren-2-yl)methyl-2OG [2OG derivative 7] | > 50 µM | < 1% | < 1% | < 1% | < 1% |  |
| O=C(O)c1ccc(O)c2ncccc12 [C00029] |  |  |  |  |  | IC50 (human JMJD5 [1]; IC50 JMJD5, JMJD5 0.15 μM): 2.6 ± 0.1 µM |
| O=C(O)C(=O)N[C@H](Cc1ccccc1)C(=O)O [NOFD, N-Oxalyl-D-phenylalanine, reference compound] |  |  |  |  |  | IC50 JMJD5 (human JMJD5 [1]; JMJD5 0.15 μM): does not inhibit JMJD5 in the concentration range tested |
| 4-propyl-2OG [2OG derivative 11] | > 50 µM | ~ 10% | < 1% | < 1% | ~ 5% | IC50 (human KDM4E [3]): > 50 µM |
| CC(CC(=O)C(=O)O)C(=O)O (stereo not shown) [Entry 8] |  | < 1% | < 1% | < 1% | < 1% | JMJD5-catalyzed RPS6_128–148 hydroxylation, time course (human JMJD5 [2]; after 50 min, 10 μM cosubstrate, 0.15 μM JMJD5, 10 μM Fe(II), 2.0 μM RPS6_128–148): ~30%; IC50 (human KDM4E [3]): 6 to 7 µM and ~6.6 µM |
| Cc1nc(C(=O)NCC(=O)O)c(O)c2ccc(Oc3ccccc3)cc12 [roxadustat, reference compound] |  |  |  |  |  | IC50 JMJD5 (human JMJD5 [1]; JMJD5 0.15 μM): does not inhibit JMJD5 at substantial levels |
| CN(C)CCCNC(=O)c1ccc(-c2cc(O)c3ncccc3c2)cc1 [C00034] | 3 ± 0.5 µM |  |  |  |  |  |
| O=C(O)CNC(=O)C(=O)O [C00025] | 0.15 ± 0.02 µM |  |  |  |  |  |
| CC(C)(C)CCC(CC(=O)C(=O)O)C(=O)O (racemic) [Entry 17] |  | < 1% | < 1% | < 1% | < 1% |  |
| O=c1c(-n2ccnn2)c[nH]n1-c1cc(N2CCOCC2)ncn1 [C00039, reference compound] | 29.5 ± 1.6 µM |  |  |  |  |  |
| O=C(O)C(=O)N[C@H](Cc1ccccc1)C(=O)O [C00030] | > 100 µM |  |  |  |  |  |
| 3-ethyl-2OG [2OG derivative 2] | > 20 µM | < 1% | < 1% | < 1% | ~ 2% | IC50 (human KDM4E [3]): > 50 µM |
| O=C(O)C(=O)c1ccccc1C(=O)O [C00014] |  | <1% | <1% | <1% | <1% |  |
| O=C(O)CNC(=O)c1c(O)c2ccccc2n(Cc2ccccc2)c1=O [C00035, reference compound] | 17.8 ± 5.6 µM |  |  |  |  |  |
| CC1(C)C(C(=O)O)C1C(=O)C(=O)O (mixture of isomers) [Entry 21] |  | < 1% | < 1% | < 1% | < 1% |  |
| O=c1c2ccccc2[se]n1-c1ccccc1 [ebselen, reference compound] | ~0.7 µM |  |  |  |  | Hill coefficient of the JMJD5 inhibition curve (human JMJD5 [1]): ≥ 2 |
| COc1ccc(CC(CC(=O)O)C(=O)C(=O)O)cc1 (stereo not shown) [C00013] |  | ∼10% | <1% | ∼5% | <1% |  |

Reference: article PMC10246557, “Kinetic and inhibition studies on human Jumonji-C (JmjC) domain-containing protein 5” (RSC Chemical Biology, 2023)
